This is an account of results in US20240208970A1, “SUBSTITUTED HYDANTOIN COMPOUNDS, METHODS FOR PREPARATION THEREOF AND USE THEREOF IN THE TREATMENT AND/OR PREVENTION OF A CORONA VIRUS DISEASE” (priority 2021, published 2024).

Test [1] has as its target SARS-CoV-2 M^pro protease (Severe acute respiratory syndrome coronavirus 2 (2019-nCoV) (SARS-CoV-2), UniProt P0DTD1). Put plainly: biochemical. Type of test: biochemical. The following applies: M^pro 75 nM, substrate 10 μM.
In the next test the target is M^pro (Severe acute respiratory syndrome coronavirus 2 (2019-nCoV) (SARS-CoV-2), UniProt P0DTD1). Type of test: binding. The following applies: steady-state analysis, 25° C.

In turn, `O=C1NC2(CC(c3ccccc3Cl)C2)C(=O)N1c1cccnc1F` (stereo not drawn) [Compound 62, 2-(2-chlorophenyl)-7-(2-fluoropyridin-3-yl)-5,7-diazaspiro[3.4]octane-6,8-dione] gave an IC50 in test [1] (Tables 5B-5E) of 201 nM. This molecule registered a Kd on M^pro of 36 nM. With `CN(C)c1cncc(N2C(=O)NC3(CC(c4ccccc4Cl)C3)C2=O)c1` (stereo not drawn) [Compound 65, 2-(2-chlorophenyl)-7-(5-(dimethylamino)pyridin-3-yl)-5,7-diazaspiro[3.4]octane-6,8-dione], on M^pro, the equilibrium dissociation constant (Kd) worked out at 790 nM. That is a sub-micromolar value. Consider `O=C1NC2(CC(c3ccccc3Cl)C2)C(=O)N1c1cncc2cnccc12` (stereo not drawn) [Compound 51, 2-(2-chlorophenyl)-7-(2,7-naphthyridin-4-yl)-5,7-diazaspiro[3.4]octane-6,8-dione], for which it took 141 nM to reach half-maximal inhibition in test [1] (Tables 5B-5E) (IC50). This molecule also returned a Kd at M^pro of 29 nM. For the molecule `O=C1NC2(CC(c3ccccc3Cl)C2)C(=O)N1c1cncc2c(F)c(F)c(F)cc12` (single isomer, unassigned) [Compound 59, 2-(2-chlorophenyl)-7-(6,7,8-trifluoroisoquinolin-4-yl)-5,7-diazaspiro[3.4]octane-6,8-dione], in test [1] (Tables 5B-5E), it took 6600 nM to reach half-maximal inhibition (IC50). In addition, at M^pro, binding was put at a Kd of 250 nM.

In test [1] (Tables 5B-5E), `O=C1NC2(CC(c3ccccc3Cl)C2)C(=O)N1c1cncc2cccc(F)c12` (stereo not drawn) [Compound 53, 2-(2-chlorophenyl)-7-(5-fluoroisoquinolin-4-yl)-5,7-diazaspiro[3.4]octane-6,8-dione] registered an IC50 of 253 nM. The Kd on M^pro was found to be 42 nM.

In the case of `O=C1NC2(CC(c3ccccc3Cl)C2)C(=O)N1c1cncc2cccnc12` (stereo not drawn) [Compound 50, 2-(2-chlorophenyl)-7-(1,6-naphthyridin-8-yl)-5,7-diazaspiro[3.4]octane-6,8-dione], the IC50 in test [1] (Tables 5B-5E) was 105 nM. At M^pro, this molecule came in with a Kd of 28 nM.

`O=C1NC2(CC(C3CCC3)C2)C(=O)N1c1cncc(F)c1` (stereo not drawn) [Compound 13, 2-cyclobutyl-7-(5-fluoropyridin-3-yl)-5,7-diazaspiro[3.4]octane-6,8-dione] came in with an IC50 in test [1] (Table 5A) of 6700 nM. This molecule also gave a Kd at M^pro of 66000 ± 14000 nM.

`O=C1NC2(CC(c3ccccc3Cl)C2)C(=O)N1c1cncnc1` (stereo not drawn) [Compound 66, 2-(2-chlorophenyl)-7-(pyrimidin-5-yl)-5,7-diazaspiro[3.4]octane-6,8-dione] displayed a Kd at M^pro of 691 nM.

With `CC(C)c1ccncc1N1C(=O)NC2(CC(c3ccccc3Cl)C2)C1=O` (stereo not drawn) [Compound 63, 2-(2-chlorophenyl)-7-(4-isopropylpyridin-3-yl)-5,7-diazaspiro[3.4]octane-6,8-dione], at M^pro, the dissociation constant Kd worked out at 89 nM.

On M^pro, `O=C1NC2(CC(n3cccn3)C2)C(=O)N1c1cncc2ccccc12` (stereo not drawn) [Compound 46, 7-(isoquinolin-4-yl)-2-(1H-pyrazol-1-yl)-5,7-diazaspiro[3.4]octane-6,8-dione] gave a Kd of 930 nM. Against the preceding molecule, the Kd is about 10-fold higher. `O=C1NC2(CC(c3ccccc3Cl)C2)C(=O)N1c1cncc2c(F)c(F)c(F)cc12` (single isomer, unassigned) [Compound 60, 2-(2-chlorophenyl)-7-(6,7,8-trifluoroisoquinolin-4-yl)-5,7-diazaspiro[3.4]octane-6,8-dione]: in test [1] (Tables 5B-5E), the IC50 turned out to be 1370 nM. The Kd on M^pro came out at 364 nM. As to `O=C1CCCN1CN1C(=O)N(c2cncc3ccccc23)C(=O)C12CC(C1CCC1)C2` (stereo not drawn) [Compound 78, 2-cyclobutyl-7-(isoquinolin-4-yl)-5-((2-oxopyrrolidin-1-yl)methyl)-5,7-diazaspiro[3.4]octane-6,8-dione], in test [1] (Tables 5B-5E), the IC50 was 3060 nM. This lies in the single-digit micromolar range. As to `Cc1ccccc1C1CC2(C1)NC(=O)N(c1cncc3ccccc13)C2=O` (stereo not drawn) [Compound 23, 7-(isoquinolin-4-yl)-2-(o-tolyl)-5,7-diazaspiro[3.4]octane-6,8-dione], in test [1] (Tables 5B-5E), the IC50 is 925 nM. With `C=CCN1C(=O)N(c2cncc3ccccc23)C(=O)C12CC(C1CCC1)C2` (stereo not drawn) [Compound 74, 5-allyl-2-cyclobutyl-7-(isoquinolin-4-yl)-5,7-diazaspiro[3.4]octane-6,8-dione], half-maximal inhibition in test [1] (Tables 5B-5E) (IC50) required 1510 nM. Same read-out and setting: to `O=C1NC2(CC(c3ccc(F)cc3Cl)C2)C(=O)N1c1cncc2ccccc12` (stereo not drawn) [Compound 32, 2-(2-chloro-4-fluorophenyl)-7-(isoquinolin-4-yl)-5,7-diazaspiro[3.4]octane-6,8-dione] belongs 95 nM; to `O=C1NC2(CC(c3ccccc3Cl)C2)C(=O)N1c1cncc2cc(F)ccc12` (stereo not drawn) [Compound 55, 2-(2-chlorophenyl)-7-(7-fluoroisoquinolin-4-yl)-5,7-diazaspiro[3.4]octane-6,8-dione], 187 nM.

`O=C1NC2(CC(c3ccccc3Cl)C2)C(=O)N1c1cncc2nccnc12` (stereo not drawn) [Compound 52, 2-(2-chlorophenyl)-7-(pyrido[3,4-b]pyrazin-8-yl)-5,7-diazaspiro[3.4]octane-6,8-dione]: the concentration for half-maximal inhibition (IC50) in test [1] (Tables 5B-5E) is 394 nM. Further, binding on M^pro was put at a Kd of 134 nM.

Consider `O=C1NC2(CC(c3cccc(F)c3Cl)C2)C(=O)N1c1cncc2ccccc12` (single isomer, unassigned) [Compound 30, 2-(2-chloro-3-fluorophenyl)-7-(isoquinolin-4-yl)-5,7-diazaspiro[3.4]octane-6,8-dione], for which, in test [1] (Tables 5B-5E), the IC50 came out at 372 nM. The same measure, in the same setting: to `CC(=O)N1C(=O)N(c2cncc3ccccc23)C(=O)C12CC(C1CCC1)C2` (stereo not drawn) [Compound 79, 5-acetyl-2-cyclobutyl-7-(isoquinolin-4-yl)-5,7-diazaspiro[3.4]octane-6,8-dione] belongs 3080 nM. The same measure, in the same setting: to `NC(=O)CN1C(=O)N(c2cncc3ccccc23)C(=O)C12CC(C1CCC1)C2` (stereo not drawn) [Compound 70, 2-(2-cyclobutyl-7-(isoquinolin-4-yl)-6,8-dioxo-5,7-diazaspiro[3.4]octan-5-yl)acetamide] belongs 944 nM; to `O=C1NC2(CC(OCc3ccccc3)C2)C(=O)N1c1cncc2ccccc12` (stereo not drawn) [Compound 48, 2-(benzyloxy)-7-(isoquinolin-4-yl)-5,7-diazaspiro[3.4]octane-6,8-dione], 2580 nM; to `O=C1NC2(CC(c3ccccc3C(F)(F)F)C2)C(=O)N1c1cncc2ccccc12` (stereo not drawn) [Compound 22, 7-(isoquinolin-4-yl)-2-(2-(trifluoromethyl)phenyl)-5,7-diazaspiro[3.4]octane-6,8-dione], 197 nM.
